# Test results: patent publication US7335380B2 (Synthon IP Inc., priority 2000, dated 2008)
# Columns and labels:
# [1] = Stickiness comparison (average punch residue of tablets); type: physicochemical; conditions: tablets with microcrystalline cellulose and calcium sulphate dihydrate, 20 mm punch, 400 mg tablet, slope over runs of 50-300 tablets
# Method: An amlodpine free base tablet according to the present invention is preferably a low punch residue tablet. A “low punch residue” as used herein means that the average amount of amlodipine left on a tablet punch is not more than 1 μg/cm^2 per tablet based on a 20 mm round flat punch with a compression force of 15 kilo-newtons. Preferably, the tablet has an average punch residue of 0.7 μg/cm^2 per tablet, more preferably 0.6 μg/cm^2 per tablet. The amount of amlodipine residue can be measured by the process described in EP 244 944. In general the method involves washing the punch after runs of 50, 100, 150, 200, 250 and 300 tablets, using methanol and an ultrasonic bath. The amount of amlodipine in the samples is measured by uv and the total amount of amlodipine extracted from both the upper and lower punch is plotted against the amount of tablets made. An average value for amlodipine residue (stickiness) is calculated from the slope of the regression line by forcing the y-intercept of the line through zero.
# After 50 tablets, the tablet material was extracted from the punches using methanol and an ultrasonic bath. […] The extracts together with Amlodipine calibration samples were measured spectrometrically. […] An average value for stickiness was calculated from the slope of the regression line by forcing the y-intercept of the line through zero.
# [2] = solid amlodipine free base; Int. J. of Pharmaceutics 133, 71-83 (1996); cited from earlier work
# [3] = Solid-state stability of crystalline Form II on standing; type: physicochemical; conditions: after 1 month standing at 60° C.
# Method: The amlodipine free base can be of any form including crystalline form I, crystalline form II or amorphous. […] This form corresponds to the material described by […] and Deasy. […] Although it is possible to convert Form II into Form I by applying sufficiently high temperatures, generally over 100 C., Form II is generally stable at ambient conditions and even at moderately elevated temperatures. For instance, the Form II is stable after 1 month standing at 60° C. Accordingly, Form II is thus useful in manufacturing of pharmaceutical final forms. The amlodipine free base in the tablet of the present invention can be of a single type or can be a mixture. For example, a mixture of crystalline Forms I and II.
compound,measurement,setting,value
CCOC(=O)C1=C(COCCN)NC(C)=C(C(=O)OC)C1c1ccccc1Cl (stereo not shown) [amlodipine besylate],Average residue (stickiness),[1],1.16 μg ADP.cm^−2.tablet^−1
"CCOC(=O)C1=C(COCCN)NC(C)=C(C(=O)OC)C1c1ccccc1Cl (stereo not shown) [amlodipine free base, 2-[(2-aminoethoxy)methyl]-4-(2-chlorophenyl)-3-ethoxycarbonyl-5-methoxycarbonyl-6-methyl-1,4-dihydropyridine]",Average residue (stickiness),[1]; listed as Amlodipine base,0.55 μg ADP.cm^−2.tablet^−1
same,aqueous solubility,[2],77.4 µg/mL
CCOC(=O)C1=C(COCCN)NC(C)=C(C(=O)OC)C1c1ccccc1Cl (stereo not shown) [Form II],stability of crystalline form,[3],stable
